Source: ChEMBL document CHEMBL5465560, “Selectivity Literature for EUbOPEN Chemogenomic Library” (2024)
Values belong to the compound of their own block, whether it stands above or below them.

Legend:
[1] = molecular target: Bromodomain-containing protein 4 (Homo sapiens, UniProt O60885); experiment: Selectivity interaction (Human bromodomain panel (DSF assay)) EUB0000233b BRD4
[2] = molecular target: T1, Dual specificity mitogen-activated protein kinase kinase 3 (Homo sapiens) (UniProt P46734); experiment: Selectivity interaction (KinomeScan (DiscoverX)) EUB0000607a MAP2K3; settings: at 10 µM
T1 sequence (whole entry): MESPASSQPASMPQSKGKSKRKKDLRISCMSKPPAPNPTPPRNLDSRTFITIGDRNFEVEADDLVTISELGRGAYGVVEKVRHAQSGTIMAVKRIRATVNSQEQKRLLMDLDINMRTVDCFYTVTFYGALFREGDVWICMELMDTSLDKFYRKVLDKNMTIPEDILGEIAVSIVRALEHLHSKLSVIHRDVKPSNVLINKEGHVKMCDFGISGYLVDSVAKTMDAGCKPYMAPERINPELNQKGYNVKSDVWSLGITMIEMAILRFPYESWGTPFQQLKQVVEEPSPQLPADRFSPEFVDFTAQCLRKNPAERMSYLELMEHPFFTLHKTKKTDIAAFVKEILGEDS

[3] = molecular target: Serine/threonine-protein kinase PAK 6 (Homo sapiens) (UniProt Q9NQU5); experiment: Selectivity interaction (Upstate Kinase Profiler service (Millipore)) EUB0000056c PAK6; settings: at 1 µM
Sequence of Serine/threonine-protein kinase PAK 6 (Homo sapiens) (Q9NQU5 whole entry, looked up): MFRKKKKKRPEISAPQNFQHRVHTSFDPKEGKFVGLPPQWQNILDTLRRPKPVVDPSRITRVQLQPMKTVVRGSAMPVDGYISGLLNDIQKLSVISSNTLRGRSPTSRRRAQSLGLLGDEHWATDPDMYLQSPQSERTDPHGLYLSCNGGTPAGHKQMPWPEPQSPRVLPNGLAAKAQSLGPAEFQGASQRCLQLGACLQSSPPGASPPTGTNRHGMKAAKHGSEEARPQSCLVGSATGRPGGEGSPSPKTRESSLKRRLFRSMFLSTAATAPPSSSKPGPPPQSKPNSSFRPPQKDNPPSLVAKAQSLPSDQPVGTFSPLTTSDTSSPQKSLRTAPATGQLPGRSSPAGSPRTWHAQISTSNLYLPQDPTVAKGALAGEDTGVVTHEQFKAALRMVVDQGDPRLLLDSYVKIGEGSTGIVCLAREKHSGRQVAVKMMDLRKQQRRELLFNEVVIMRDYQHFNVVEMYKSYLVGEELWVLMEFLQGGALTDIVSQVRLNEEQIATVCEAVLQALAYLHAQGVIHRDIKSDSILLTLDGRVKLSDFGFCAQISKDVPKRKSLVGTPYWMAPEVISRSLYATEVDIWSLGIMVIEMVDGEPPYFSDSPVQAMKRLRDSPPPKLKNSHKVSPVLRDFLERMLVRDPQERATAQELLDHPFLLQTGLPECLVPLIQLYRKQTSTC

[4] = molecular target: Angiopoietin-1 receptor (Homo sapiens) (UniProt Q02763); settings: at 10 µM
Sequence of Angiopoietin-1 receptor (Homo sapiens) (Q02763 whole entry): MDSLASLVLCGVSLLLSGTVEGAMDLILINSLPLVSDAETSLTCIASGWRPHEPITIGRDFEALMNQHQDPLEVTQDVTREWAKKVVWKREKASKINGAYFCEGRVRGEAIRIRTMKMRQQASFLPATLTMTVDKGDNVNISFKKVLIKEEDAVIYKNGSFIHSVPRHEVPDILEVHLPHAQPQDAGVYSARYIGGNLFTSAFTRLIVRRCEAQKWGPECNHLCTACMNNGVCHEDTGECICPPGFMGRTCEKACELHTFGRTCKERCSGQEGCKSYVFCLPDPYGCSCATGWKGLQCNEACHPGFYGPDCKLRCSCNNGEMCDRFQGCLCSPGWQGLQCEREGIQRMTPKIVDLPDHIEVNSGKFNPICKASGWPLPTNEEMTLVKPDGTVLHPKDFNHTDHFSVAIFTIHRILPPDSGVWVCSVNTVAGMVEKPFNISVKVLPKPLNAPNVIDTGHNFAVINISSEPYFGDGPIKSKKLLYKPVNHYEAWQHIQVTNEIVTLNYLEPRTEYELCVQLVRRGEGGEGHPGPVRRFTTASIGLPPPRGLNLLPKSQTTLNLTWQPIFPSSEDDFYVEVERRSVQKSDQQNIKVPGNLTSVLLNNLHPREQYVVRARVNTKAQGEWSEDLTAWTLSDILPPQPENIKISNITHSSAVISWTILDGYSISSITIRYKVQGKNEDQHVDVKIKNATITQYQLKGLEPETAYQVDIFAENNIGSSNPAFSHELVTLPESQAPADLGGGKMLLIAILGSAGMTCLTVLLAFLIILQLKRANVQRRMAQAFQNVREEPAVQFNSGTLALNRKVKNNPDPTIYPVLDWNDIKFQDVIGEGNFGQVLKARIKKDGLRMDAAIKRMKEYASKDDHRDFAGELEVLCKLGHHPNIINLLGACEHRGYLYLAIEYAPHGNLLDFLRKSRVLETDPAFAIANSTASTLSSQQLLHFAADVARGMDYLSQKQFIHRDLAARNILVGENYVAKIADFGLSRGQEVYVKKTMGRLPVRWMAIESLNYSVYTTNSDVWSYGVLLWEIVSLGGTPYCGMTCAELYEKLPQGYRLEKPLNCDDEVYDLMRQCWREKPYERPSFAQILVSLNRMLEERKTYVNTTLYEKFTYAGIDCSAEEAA

[5] = molecular target: Microtubule-associated serine/threonine-protein kinase 3 (Homo sapiens) (UniProt O60307); experiment: Selectivity interaction (ActivX KiNativ screen (kinase selectivity in THP-1 cell lysates)) EUB0000639a MAST3; assay type: subcellular; settings: lysate
Sequence of Microtubule-associated serine/threonine-protein kinase 3 (Homo sapiens) (O60307 whole entry): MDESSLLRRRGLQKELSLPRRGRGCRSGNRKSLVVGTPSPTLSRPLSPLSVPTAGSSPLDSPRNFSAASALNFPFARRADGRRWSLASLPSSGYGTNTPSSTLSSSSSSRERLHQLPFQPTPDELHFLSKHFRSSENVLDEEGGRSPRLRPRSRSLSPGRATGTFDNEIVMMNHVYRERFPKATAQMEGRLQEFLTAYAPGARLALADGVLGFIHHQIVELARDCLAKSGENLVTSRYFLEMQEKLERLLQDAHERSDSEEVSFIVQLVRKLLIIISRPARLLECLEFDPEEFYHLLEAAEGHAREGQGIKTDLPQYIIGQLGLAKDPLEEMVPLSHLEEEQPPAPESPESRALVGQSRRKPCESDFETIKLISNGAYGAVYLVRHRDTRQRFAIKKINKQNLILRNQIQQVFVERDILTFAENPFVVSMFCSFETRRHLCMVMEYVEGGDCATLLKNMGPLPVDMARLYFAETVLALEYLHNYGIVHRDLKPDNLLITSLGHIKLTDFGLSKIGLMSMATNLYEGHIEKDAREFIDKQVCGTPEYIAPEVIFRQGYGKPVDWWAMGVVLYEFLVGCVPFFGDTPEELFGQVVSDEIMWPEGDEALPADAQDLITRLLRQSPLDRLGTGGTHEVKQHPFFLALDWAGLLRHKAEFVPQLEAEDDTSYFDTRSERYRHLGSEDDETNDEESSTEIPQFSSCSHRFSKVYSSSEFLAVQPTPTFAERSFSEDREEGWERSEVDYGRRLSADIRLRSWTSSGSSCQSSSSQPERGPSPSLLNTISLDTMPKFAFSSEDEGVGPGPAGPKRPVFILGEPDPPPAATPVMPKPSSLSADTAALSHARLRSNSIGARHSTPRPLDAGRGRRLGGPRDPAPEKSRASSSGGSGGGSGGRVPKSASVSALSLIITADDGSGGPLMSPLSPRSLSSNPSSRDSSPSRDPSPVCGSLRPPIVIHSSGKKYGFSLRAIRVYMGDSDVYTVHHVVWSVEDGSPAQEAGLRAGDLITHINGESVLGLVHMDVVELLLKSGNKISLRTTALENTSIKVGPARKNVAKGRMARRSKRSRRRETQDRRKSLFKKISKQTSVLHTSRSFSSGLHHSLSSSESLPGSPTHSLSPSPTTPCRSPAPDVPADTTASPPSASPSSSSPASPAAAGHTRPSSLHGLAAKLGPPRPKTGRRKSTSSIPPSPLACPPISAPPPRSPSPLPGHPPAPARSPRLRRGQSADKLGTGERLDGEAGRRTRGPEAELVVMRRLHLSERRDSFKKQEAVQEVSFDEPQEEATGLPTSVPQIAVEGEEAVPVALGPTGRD

[6] = molecular target: T2, Serine/threonine-protein kinase Nek1 (Homo sapiens) (UniProt Q96PY6); experiment: Selectivity interaction (Kinase panel (Invitrogen)) EUB0000639a NEK1; settings: at 200 nM
T2 sequence (whole entry): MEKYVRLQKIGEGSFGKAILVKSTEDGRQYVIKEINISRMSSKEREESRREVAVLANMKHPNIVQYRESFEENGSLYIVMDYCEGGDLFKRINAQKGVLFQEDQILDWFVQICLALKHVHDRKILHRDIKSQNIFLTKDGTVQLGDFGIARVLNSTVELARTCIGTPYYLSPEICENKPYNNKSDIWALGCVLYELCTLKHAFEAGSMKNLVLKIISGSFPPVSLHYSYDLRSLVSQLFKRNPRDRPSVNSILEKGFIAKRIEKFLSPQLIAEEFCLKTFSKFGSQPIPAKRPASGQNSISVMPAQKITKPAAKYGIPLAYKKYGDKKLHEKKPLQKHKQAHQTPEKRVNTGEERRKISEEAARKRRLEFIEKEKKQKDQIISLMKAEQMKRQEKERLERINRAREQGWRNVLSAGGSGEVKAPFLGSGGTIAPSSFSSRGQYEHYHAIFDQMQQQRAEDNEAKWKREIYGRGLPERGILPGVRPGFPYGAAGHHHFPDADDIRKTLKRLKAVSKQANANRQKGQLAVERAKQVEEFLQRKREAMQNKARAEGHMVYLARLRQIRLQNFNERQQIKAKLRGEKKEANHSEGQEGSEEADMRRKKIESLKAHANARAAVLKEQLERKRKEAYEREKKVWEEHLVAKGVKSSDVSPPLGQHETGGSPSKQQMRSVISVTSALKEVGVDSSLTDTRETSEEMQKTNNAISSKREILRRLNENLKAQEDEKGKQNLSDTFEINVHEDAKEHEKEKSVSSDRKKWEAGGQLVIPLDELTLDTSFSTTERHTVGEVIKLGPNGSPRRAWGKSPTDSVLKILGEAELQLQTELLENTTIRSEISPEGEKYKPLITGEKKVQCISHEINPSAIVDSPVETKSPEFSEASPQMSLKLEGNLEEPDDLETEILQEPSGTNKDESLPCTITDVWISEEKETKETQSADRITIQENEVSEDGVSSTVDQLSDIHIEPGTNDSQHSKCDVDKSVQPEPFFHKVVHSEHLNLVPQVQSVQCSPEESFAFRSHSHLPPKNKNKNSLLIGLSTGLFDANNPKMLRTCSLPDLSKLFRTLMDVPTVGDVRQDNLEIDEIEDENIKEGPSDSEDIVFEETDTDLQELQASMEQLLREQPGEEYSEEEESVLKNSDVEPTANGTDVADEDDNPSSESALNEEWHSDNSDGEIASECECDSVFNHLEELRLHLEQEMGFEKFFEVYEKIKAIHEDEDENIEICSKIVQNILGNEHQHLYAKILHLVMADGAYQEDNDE

[7] = molecular target: Serine/threonine-protein kinase PAK 6 (Homo sapiens) (UniProt Q9NQU5); experiment: Selectivity interaction (KinomeScan (DiscoverX)) EUB0000595a PAK6; settings: at 10 µM
[8] = molecular target: Tyrosine-protein kinase Fyn (Homo sapiens) (UniProt P06241); experiment: Selectivity interaction (KinomeScan (DiscoverX)) EUB0001049a FYN; settings: at 1 µM
Aurora kinase B = Aurora kinase B (Homo sapiens, UniProt Q96GD4); experiment: Selectivity interaction (Kinase panel (DSF assay)) EUB0001558a AURKB
[9] = molecular target: Receptor tyrosine-protein kinase erbB-2 (Homo sapiens, UniProt P04626); experiment: Selectivity interaction (KinomeScan (DiscoverX)) EUB0001079a ERBB2; settings: at 1 µM
[10] = molecular target: DNA (cytosine-5)-methyltransferase 3A (Homo sapiens) (UniProt Q9Y6K1); settings: at 1 µM
Sequence of DNA (cytosine-5)-methyltransferase 3A (Homo sapiens) (Q9Y6K1 whole entry, looked up): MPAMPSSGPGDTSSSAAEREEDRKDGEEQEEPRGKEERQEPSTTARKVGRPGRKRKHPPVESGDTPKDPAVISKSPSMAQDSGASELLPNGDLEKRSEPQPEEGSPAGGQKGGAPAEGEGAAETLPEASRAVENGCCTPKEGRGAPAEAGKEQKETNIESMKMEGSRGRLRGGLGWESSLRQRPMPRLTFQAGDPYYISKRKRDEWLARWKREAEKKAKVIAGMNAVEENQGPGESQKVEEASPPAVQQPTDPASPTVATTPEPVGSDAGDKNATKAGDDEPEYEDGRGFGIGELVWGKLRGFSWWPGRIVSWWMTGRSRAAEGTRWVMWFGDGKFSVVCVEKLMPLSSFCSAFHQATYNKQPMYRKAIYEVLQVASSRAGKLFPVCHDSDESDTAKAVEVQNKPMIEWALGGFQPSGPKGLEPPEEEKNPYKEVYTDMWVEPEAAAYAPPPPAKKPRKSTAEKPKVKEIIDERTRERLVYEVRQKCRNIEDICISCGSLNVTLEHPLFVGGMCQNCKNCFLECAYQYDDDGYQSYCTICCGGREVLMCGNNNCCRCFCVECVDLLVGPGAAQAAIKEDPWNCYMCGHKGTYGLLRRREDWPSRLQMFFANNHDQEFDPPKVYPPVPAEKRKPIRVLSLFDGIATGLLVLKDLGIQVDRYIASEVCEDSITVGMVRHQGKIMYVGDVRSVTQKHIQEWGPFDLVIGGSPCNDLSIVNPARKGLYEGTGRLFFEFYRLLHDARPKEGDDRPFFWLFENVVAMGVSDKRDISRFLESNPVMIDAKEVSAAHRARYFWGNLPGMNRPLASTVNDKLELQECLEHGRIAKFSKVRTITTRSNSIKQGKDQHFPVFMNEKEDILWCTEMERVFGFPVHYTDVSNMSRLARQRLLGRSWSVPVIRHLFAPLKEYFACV

[11] = molecular target: T3, Interleukin-1 receptor-associated kinase 4 (Homo sapiens) (UniProt Q9NWZ3); experiment: Selectivity interaction (KinomeScan (DiscoverX)) EUB0001550a IRAK4; settings: at 1 µM
T3 sequence (whole entry): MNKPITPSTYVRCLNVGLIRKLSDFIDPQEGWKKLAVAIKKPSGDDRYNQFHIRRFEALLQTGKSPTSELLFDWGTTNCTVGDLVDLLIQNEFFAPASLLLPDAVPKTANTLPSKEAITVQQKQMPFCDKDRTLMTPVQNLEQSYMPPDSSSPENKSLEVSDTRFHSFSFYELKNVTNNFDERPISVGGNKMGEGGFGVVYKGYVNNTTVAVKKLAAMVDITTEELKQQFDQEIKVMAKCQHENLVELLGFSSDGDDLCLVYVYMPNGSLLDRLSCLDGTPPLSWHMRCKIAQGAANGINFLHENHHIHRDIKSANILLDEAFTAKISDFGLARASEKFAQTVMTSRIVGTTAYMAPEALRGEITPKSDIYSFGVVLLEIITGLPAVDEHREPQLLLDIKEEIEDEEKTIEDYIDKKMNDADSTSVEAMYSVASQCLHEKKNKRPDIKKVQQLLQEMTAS

[12] = molecular target: Serine/threonine-protein kinase N1 (Homo sapiens, UniProt Q16512); settings: at 10 µM
Sequence of Serine/threonine-protein kinase N1 (Q16512 2-942 limits assumed): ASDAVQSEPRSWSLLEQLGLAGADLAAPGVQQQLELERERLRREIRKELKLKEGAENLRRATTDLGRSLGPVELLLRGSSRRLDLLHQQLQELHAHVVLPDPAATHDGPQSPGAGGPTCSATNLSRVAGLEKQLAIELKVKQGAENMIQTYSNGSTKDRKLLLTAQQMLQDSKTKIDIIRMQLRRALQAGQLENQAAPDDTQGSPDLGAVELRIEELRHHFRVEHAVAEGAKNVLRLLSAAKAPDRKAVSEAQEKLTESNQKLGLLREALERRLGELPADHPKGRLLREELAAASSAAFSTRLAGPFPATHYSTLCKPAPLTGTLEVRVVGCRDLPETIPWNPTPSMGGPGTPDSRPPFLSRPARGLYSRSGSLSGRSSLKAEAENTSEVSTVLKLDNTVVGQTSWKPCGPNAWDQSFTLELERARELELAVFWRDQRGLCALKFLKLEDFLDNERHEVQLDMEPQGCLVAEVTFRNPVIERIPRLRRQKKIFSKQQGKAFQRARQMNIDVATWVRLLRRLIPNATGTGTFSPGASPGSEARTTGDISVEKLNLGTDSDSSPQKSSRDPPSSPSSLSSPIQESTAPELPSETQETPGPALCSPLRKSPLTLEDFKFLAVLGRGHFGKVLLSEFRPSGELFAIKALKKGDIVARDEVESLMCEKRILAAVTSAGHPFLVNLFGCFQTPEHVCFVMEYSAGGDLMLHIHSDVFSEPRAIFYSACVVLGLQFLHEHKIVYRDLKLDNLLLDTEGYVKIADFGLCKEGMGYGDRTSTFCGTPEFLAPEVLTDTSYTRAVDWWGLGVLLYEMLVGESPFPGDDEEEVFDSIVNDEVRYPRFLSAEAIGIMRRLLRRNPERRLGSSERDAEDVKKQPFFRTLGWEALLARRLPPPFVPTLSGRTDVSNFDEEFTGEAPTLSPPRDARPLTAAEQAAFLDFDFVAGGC

[13] = molecular target: Serine/threonine-protein kinase PAK 2 (Homo sapiens) (UniProt Q13177); experiment: Selectivity interaction (KinomeScan (DiscoverX)) EUB0001619a PAK2; settings: at 1 µM

dTM [1]: < 2 K
Compound: CN(C)CCCOc1ccc(-c2cc(NCCCn3cccn3)nc(S(C)(=O)=O)n2)cc1

Compound: CNC(=O)Nc1ccc(-c2nc(N3CC4CCC(C3)O4)c3cnn(C4CCC5(CC4)OCCO5)c3n2)cc1
% of control [2]: 89%

% of inhibition [3]: 9%
Compound: Cc1ccc(-c2ccc3c(ccc4sc5c(c43)NC[C@@H](C)NC5=O)n2)cn1

% of control [4]: 100%
Compound: CCN(CC)CCCCNc1ncc2cc(-c3cc(OC)cc(OC)c3)c(NC(=O)NC(C)(C)C)nc2n1

% of inhibition ([5]; at 0.01 µM): 11.4%
% of inhibition ([5]; at 0.04 µM): 9.3%
% of inhibition ([5]; at 0.2 µM): 2.6%
% of inhibition ([5]; at 1 µM): 4.8%
% of inhibition ([5]; at 5 µM): 32.1%
% of inhibition [6]: 10.2%
Compound: CC[C@@H]1[C@H](F)C(=O)N[C@@H]1COc1nccc2cc(C(N)=O)c(OC)cc12 [ZIMLOVISERTIB]

Compound: COCC(=O)NC/C=C/c1ccc2ncnc(Nc3ccc(Oc4ccc(C)nc4)c(C)c3)c2c1 [CP-724714]
% of control [7]: 89%

Compound: COc1cc(Nc2nc(C)cc(-c3cnn4nc(OC)ccc34)n2)cc(C(F)(F)F)c1
% of control [8]: 100%

Compound: CC(C)(O)[C@H](F)CN1Cc2cc(NC(=O)c3cnn4cccnc34)c(N3CCOCC3)cc2C1=O
dTM (Aurora kinase B): 0.5 K

Compound: Nc1cnc(N2CCc3cc(S(=O)(=O)Nc4c(F)cc(Cl)cc4F)cc(N4CCCC4=O)c32)nc1 [TP-020n]
% of control [9]: 100%

% activity [10]: > 90%
Compound: CNCCN1CCC(c2cc(CN(C)C(=O)c3cccc(Oc4ccccc4)c3)ccn2)CC1

% of control [11]: 21%
Compound: CN(C)CC#Cc1ccc2[nH]c3c(c2c1)-c1nc(N)ncc1CCC3

Compound: Cc1cc([C@@H](C)Nc2ccccc2C(=O)O)c2nc(N3CCOCC3)cc(=O)n2c1 [AZD-6482]
% of control [12]: 100%

Compound: N#Cc1cccc(-c2c[nH]c3ncnc(N4CCOCC4)c23)c1
% of control [13]: 100%
